Measured values: PMC6071264 (Toxins, 2018)
Bridge positions count the residues as written; N and C are the ends. Peptide text beside a SMILES is read from it.

Legend:
T84 cells = T84 cells (Homo sapiens, UniProt P25092); assay: T84 cell assay (cGMP response); type: cell-based; conditions: read-out: EC50 in the T84 cell assay, pre-incubation 1 mM IBMX 10 min, sample 60 min at 37 °C, cGMP enzyme immunoassay, three independent experiments, four-parameter logistic regression, bottom set to zero, Figure 2C
[1] = system: C30 anti-STp monoclonal antibody; conditions: read-out: IC50, inhibition of C30 mAb binding to ELISA coating (peptides from RP-HPLC peaks)

Chain of T84 cells (P25092 24-1073): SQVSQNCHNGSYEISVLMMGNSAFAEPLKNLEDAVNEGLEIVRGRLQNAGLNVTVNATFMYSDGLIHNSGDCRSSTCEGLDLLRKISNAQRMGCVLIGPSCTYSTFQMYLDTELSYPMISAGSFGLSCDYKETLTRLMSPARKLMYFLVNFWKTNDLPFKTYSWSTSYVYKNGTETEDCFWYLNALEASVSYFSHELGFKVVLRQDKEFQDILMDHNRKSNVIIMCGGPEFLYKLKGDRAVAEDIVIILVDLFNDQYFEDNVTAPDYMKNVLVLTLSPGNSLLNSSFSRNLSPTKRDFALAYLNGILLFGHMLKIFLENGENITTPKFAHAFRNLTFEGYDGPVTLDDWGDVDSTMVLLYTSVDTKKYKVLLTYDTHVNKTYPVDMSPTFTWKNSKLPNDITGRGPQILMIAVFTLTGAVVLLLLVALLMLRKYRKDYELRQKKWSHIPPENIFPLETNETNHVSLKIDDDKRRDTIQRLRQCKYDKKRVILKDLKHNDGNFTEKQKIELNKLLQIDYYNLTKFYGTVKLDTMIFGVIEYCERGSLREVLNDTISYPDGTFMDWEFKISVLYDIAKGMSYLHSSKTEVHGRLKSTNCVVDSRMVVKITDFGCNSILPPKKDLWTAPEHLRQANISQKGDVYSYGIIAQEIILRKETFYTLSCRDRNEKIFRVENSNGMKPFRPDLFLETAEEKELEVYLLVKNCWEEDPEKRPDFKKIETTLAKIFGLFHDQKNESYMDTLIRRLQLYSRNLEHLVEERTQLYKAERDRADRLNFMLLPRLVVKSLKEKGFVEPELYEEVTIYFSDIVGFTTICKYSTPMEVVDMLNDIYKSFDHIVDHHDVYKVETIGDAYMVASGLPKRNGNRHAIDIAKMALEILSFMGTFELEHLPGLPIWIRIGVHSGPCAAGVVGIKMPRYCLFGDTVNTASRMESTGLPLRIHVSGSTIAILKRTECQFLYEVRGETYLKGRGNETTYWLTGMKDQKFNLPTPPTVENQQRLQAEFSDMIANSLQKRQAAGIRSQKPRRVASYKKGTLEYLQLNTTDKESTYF

Row | SMILES | EC50 (T84 cells) [nM] | IC50 [1] [nM]
1 | CC(C)C[C@@H]1NC(=O)[C@H](CCC(=O)O)NC(=O)[C@@H]2CSSC[C@@H]3NC(=O)[C@H](C)NC(=O)[C@@H]4CCCN4C(=O)[C@H](CC(N)=O)NC(=O)[C@H](CSSC[C@H](NC(=O)[C@H](Cc4ccc(O)cc4)NC(=O)[C@H](CC(N)=O)NC(=O)[C@H](CO)NC(=O)[C@H](CO)NC(=O)[C@@H](N)CC(N)=O)C(=O)N2)NC(=O)[C@H](CSSC[C@@H](C(=O)N[C@@H](Cc2ccc(O)cc2)C(=O)O)NC(=O)CNC(=O)[C@H]([C@@H](C)O)NC3=O)NC1=O [ETEC STh] (H-NSSNYCCELCCNPACTGCY-OH; disulfide 6-11, 7-15, 10-18; N-terminus and C-terminus assumed) | 22.9 ± 6.8 | 
2 | CC(C)C[C@@H]1NC(=O)[C@H](CCC(=O)O)NC(=O)[C@@H]2CSSC[C@@H]3NC(=O)[C@H](C)NC(=O)[C@@H]4CCCN4C(=O)[C@H](CC(N)=O)NC(=O)[C@H](CSSC[C@H](NC(=O)[C@H](Cc4ccc(O)cc4)NC(=O)[C@H](CC(N)=O)NC(=O)[C@H](CO)NC(=O)[C@H](CO)NC(=O)[C@@H](N)CC(N)=O)C(=O)N2)NC(=O)[C@H](CSSC[C@@H](C(=O)N[C@@H](Cc2ccc(O)cc2)C(=O)O)NC(=O)CNC(=O)[C@H]([C@@H](C)O)NC3=O)NC1=O [synthetic STh] (H-NSSNYCCELCCNPACTGCY-OH; disulfide 6-11, 7-15, 10-18) | 9.6 ± 1.8 | 2.3 ± 0.1
3 | CC(C)C[C@@H]1NC(=O)[C@H](CCC(=O)O)NC(=O)[C@@H]2CSSC[C@@H]3NC(=O)[C@H](C)NC(=O)[C@@H]4CCCN4C(=O)[C@H](CC(N)=O)NC(=O)[C@H](CSSC[C@H](NC(=O)[C@H](Cc4ccc(O)cc4)NC(=O)[C@H](Cc4ccccc4)NC(=O)[C@@H](NC(=O)[C@@H](N)CC(N)=O)[C@@H](C)O)C(=O)N2)NC(=O)[C@H](CSSC[C@@H](C(=O)N[C@@H](Cc2ccc(O)cc2)C(=O)O)NC(=O)CNC(=O)[C@H](C)NC3=O)NC1=O [STp] | 15.4 ± 3.8 | 
4 | CC(C)C[C@@H]1NC(=O)[C@H](CCC(=O)O)NC(=O)[C@@H]2CSSC[C@@H]3NC(=O)[C@H](C)NC(=O)[C@@H]4CCCN4C(=O)[C@H](CC(N)=O)NC(=O)[C@H](CSSC[C@H](NC(=O)[C@H](Cc4ccc(O)cc4)NC(=O)[C@H](CC(N)=O)NC(=O)[C@H](CO)NC(=O)[C@H](CO)NC(=O)[C@@H](N)CC(N)=O)C(=O)N2)NC(=O)[C@H](CSSC[C@@H](C(=O)N[C@@H](Cc2ccc(O)cc2)C(=O)O)NC(=O)CNC(=O)[C@H]([C@@H](C)O)NC3=O)NC1=O [STh] (H-NSSNYCCELCCNPACTGCY-OH; disulfide 6-11, 7-15, 10-18) | 15.4 ± 3 | 4.2 ± 0.3
